# Data published in patent publication US8343475B2, “Small cationic antimicrobial peptides” (priority 2006, dated 2013).
# Residues, ends and D or L forms follow the SMILES beside them.
# Assays:
# [1] = system: Pseudomonas aeruginosa PAO1 strain H103; format: cell-based; details: for antimicrobial activity against P. aeruginosa PAO1 (in words): laboratory strain P. aeruginosa PAO1
# Method in brief: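 Modified broth microdilution MIC in Mueller Hinton medium, peptides diluted in 0.01% acetic acid/0.2% BSA, polypropylene plates. Inoculum 2-7×10^5 CFU/ml, overnight at 37 °C; MIC is the lowest concentration with no visible growth.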
# [2] = system: Enterococcus faecalis ATCC29212; format: cell-based; details: ATCC29212
# Method in brief: (§1)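 First, peptides were serially diluted at ten times final strength in 0.01% acetic acid with 0.2% BSA. These were then added to Mueller Hinton medium and inoculated with overnight-grown organisms at 2-7×10^5 CFU/ml. After overnight incubation at 37° C, the MIC was scored as the concentration without growth.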
# [3] = system: Staphylococcus aureus ATCC25923; format: cell-based; details: ATCC25923
# Method in brief: as §1
# [4] = system: clinical isolates of MRSA; format: cell-based, Staphylococcus aureus
# Description: (§2) Minimal inhibitory concentration (MIC) determination. The MIC of the peptides were measured using a modified broth microdilution method in Mueller Hinton (MH) medium (Wu M, Hancock R E W. 1999. Interaction of the cyclic antimicrobial cationic peptide bactenecin with the outer and cytoplasmic membrane. J Biol Chem 274, 29-35). Briefly, the peptides were dissolved and stored in glass vials. The assay was performed in sterile 96-well polypropylene microtitre plates were used. Serial dilutions of the peptides to be assayed were performed in 0.01% acetic acid (Fisher) containing 0.2% bovine serum albumin (Boehringer Mannheim GmbH) at 10× the desired final concentration. Ten microlitres of the 10× peptides were added to each well of a 96-well polypropylene plate containing 90 μl of MH media per well. Bacteria were added to the plate from an overnight culture at 2-7×10^5 colony forming units/ml and incubated over night at 37° C. The MIC was taken as the concentration at which no growth was observed.
# (§3) All peptides derived from the 1st, 2nd, and 3rd quartiles were further evaluated for their antibacterial activities against several highly antibitoic resistant pathogens (Table 3). These included clinical isolates of MRSA, ESBL E. cloacae, and multidrug resistant Pseudomonas strains including Brazilian clinical isolates of P. aeruginosa that are resistant to meropenem, ceftazidime, piperacillin/tazobactam, ciprofloxacin, cefepime and polymyxin B, and the Liverpool Epidemic Strains. […] Such results characterize the developed peptides as excellent antibiotic candidates, providing new means for treating most dangerous and severe forms of human infections.
# ESBL E. cloacae = format: cell-based, Enterobacter cloacae
# Description: as §2, §3
# [5] = system: Liverpool Epidemic Strains; format: cell-based, Pseudomonas aeruginosa
# Description: as §2, §3
# [6] = system: multidrug resistant Brazilian clinical isolates of P. aeruginosa; format: cell-based, Pseudomonas aeruginosa
# Description: as §2, §3
# [7] = system: MCP-1 release by human PBMC; test: Chemokine induction in PBMC (capture ELISA); format: cell-based; details: background (204) subtracted
# Method in brief: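 Heparinized blood from healthy volunteers; Ficoll-isolated human PBMC (7.5×10^5) treated with peptides at 20 or 100 μg/ml for 24 hours at 37° C, 5% CO2. Cell-free supernatants assayed for MCP-1 by capture ELISA.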
# [8] = system: MCP-3 release by human PBMC; test: Chemokine induction in PBMC (capture ELISA); format: cell-based; details: background (6) subtracted
# Method in brief: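 Human PBMC from healthy donors (Ficoll-isolated), 7.5×10^5 cells at 0.75–1×10^6 cells/ml, treated with peptides at 20 or 100 μg/ml for 24 h at 37° C, 5% CO2. MCP-3 in cell-free supernatants measured by capture ELISA.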
# [9] = system: CXCL1 (Gro-α) release by human PBMC; test: Chemokine induction in PBMC (capture ELISA); format: cell-based; details: background (196) subtracted
# Method in brief: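 Human PBMC from healthy donors' heparinised blood (Ficoll), 7.5×10^5 cells treated with 20 or 100 μg/ml peptide for 24 h at 37° C, 5% CO2. Cell-free supernatants assayed for CXCL1 by capture ELISA.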
# [10] = system: ESBL E. coli clinical strain 64771; format: cell-based; details: ESBL clinical strain 64771
# Description: as §2
# (§4) The selected peptides were synthesized and assayed against several major antibiotic-resistant pathogens. Initially, the peptides were screened against the laboratory strain of P. aeruginosa PAO1 to compare the results with the training data. […] The antibacterial activity in the form of minimal inhibitory concentration (MIC) of the other studied peptides was assessed in greater depth (Table 9) against many highly antibiotic resistanct pathogens.
# [11] = system: ESBL Klebsiella pneumonia clinical strain 63575; format: cell-based
# Description: as §2, §4
# [12] = system: multidrug resistant Pseudomonas maltophilia ATCC13637; format: cell-based
# Description: as §2, §4
Structure (SMILES),MIC against P. aeruginosa PAO1 [1] [µM],MIC [2] [µM],MIC [3] [µM],MIC [4] [µM],MIC (ESBL E. cloacae) [µM],MIC [5] [µM],MIC [6] [µM],Chemokine induction MCP-1 ([7]; 20 μg/ml peptide) [pg/mL],Chemokine induction MCP-1 ([7]; 100 μg/ml peptide) [pg/mL],Chemokine induction MCP-3 ([8]; 20 μg/ml peptide) [pg/mL],Chemokine induction MCP-3 ([8]; 100 μg/ml peptide) [pg/mL],Chemokine induction Gro-α ([9]; 20 μg/ml peptide) [pg/mL],Chemokine induction Gro-α ([9]; 100 μg/ml peptide) [pg/mL],MIC [10] [µM],MIC [11] [µM],MIC [12] [µM],antimicrobial activity against P. aeruginosa PAO1 (in words) [1]
"CC[C@H](C)[C@H](NC(=O)[C@H](CCCCN)NC(=O)[C@H](Cc1c[nH]c2ccccc12)NC(=O)[C@@H](N)CCCCN)C(=O)N[C@@H](Cc1ccccc1)C(=O)N[C@@H](CCCNC(=N)N)C(=O)N[C@@H](CCCNC(=N)N)C(=O)N[C@@H](Cc1c[nH]c2ccccc12)C(=O)N[C@@H](Cc1c[nH]c2ccccc12)C(N)=O [HHC71, KWKIFRRWW] (H-KWKIFRRWW-NH2; N-terminus assumed)",4 to 12,24,3,3,6,3,24,-6,99,0,2,-17,1,12,97,1.5,
"N=C(N)NCCC[C@H](NC(=O)[C@H](CCCNC(=N)N)NC(=O)[C@H](CCCCN)NC(=O)[C@H](Cc1c[nH]c2ccccc12)NC(=O)[C@H](Cc1c[nH]c2ccccc12)NC(=O)[C@H](CCCCN)NC(=O)[C@H](CCCCN)NC(=O)[C@@H](N)Cc1c[nH]c2ccccc12)C(=O)N[C@@H](Cc1c[nH]c2ccccc12)C(N)=O [HHC48, WKKWWKRRW] (H-WKKWWKRRW-NH2; N-terminus assumed)",,93,1.4,39,23,6,46,2,12,-1,-1,-8,-10,3,46,1.4,
"CC[C@H](C)[C@H](NC(=O)[C@H](C)N)C(=O)N[C@@H](CCCNC(=N)N)C(=O)N[C@@H](CCCNC(=N)N)C(=O)N[C@@H](Cc1c[nH]c2ccccc12)C(=O)N[C@@H](CCCNC(=N)N)C(=O)N[C@H](C(=O)N[C@@H](CCCNC(=N)N)C(=O)N[C@@H](CCCCN)C(N)=O)[C@@H](C)CC [HHC142, AIRRWRIRK] (H-AIRRWRIRK-NH2; N-terminus assumed)",,>217,54,54,108,217,>217,67,-16,1,0,59,22,108,>217,108,did not return any generally active substances
"CC[C@H](C)[C@H](NC(=O)[C@H](CCCCN)NC(=O)[C@H](CC(C)C)NC(=O)[C@@H](NC(=O)[C@@H](N)C(C)C)C(C)C)C(=O)N[C@H](C(=O)N[C@@H](CCCNC(=N)N)C(=O)N[C@@H](CCCNC(=N)N)C(=O)N[C@@H](Cc1ccccc1)C(N)=O)C(C)C [HHC148, VVLKIVRRF] (H-VVLKIVRRF-NH2; N-terminus assumed)",,241,241,241,241,241,>241,25,210,1,3,55,60,241,>241,60,did not return any generally active substances
"CC(C)C[C@H](NC(=O)[C@H](Cc1c[nH]c2ccccc12)NC(=O)[C@H](Cc1c[nH]c2ccccc12)NC(=O)[C@H](CCCCN)NC(=O)[C@H](Cc1c[nH]c2ccccc12)NC(=O)[C@H](CCCNC(=N)N)NC(=O)[C@H](CCCNC(=N)N)NC(=O)[C@H](Cc1c[nH]c2ccccc12)NC(=O)[C@@H](N)CCCNC(=N)N)C(N)=O [HHC9, RWRRWKWWL] (H-RWRRWKWWL-NH2; N-terminus assumed)",,23,3,3,6,0.3,12,9,4493,-1,48,-25,5,3,11,0.7,
"CC[C@H](C)[C@H](NC(=O)[C@H](Cc1c[nH]c2ccccc12)NC(=O)[C@H](Cc1c[nH]c2ccccc12)NC(=O)[C@H](CCCCN)NC(=O)[C@H](CC(C)C)NC(=O)[C@H](CCCNC(=N)N)NC(=O)[C@H](CCCCN)NC(=O)[C@@H](N)CCCNC(=N)N)C(=O)N[C@@H](Cc1ccc(O)cc1)C(N)=O [HHC66, RKRLKWWIY] (H-RKRLKWWIY-NH2; N-terminus assumed)",4 to 12,50,6,6,13,6,50,351,355,0,0,-12,-23,6,50,3,
